Here are results for 13 compounds from US20070021419A1, “2-Aminophenyl-4-phenylpyrimidines as kinase inhibitors” (Cyclacel Limited, priority 2003, published 2007).

One assay addresses PLK-1 (Homo sapiens, UniProt P53350). The experiment in a line: Kinase assay, radioactive phosphate incorporation, PLK-1. The settings on record: 100 μM ATP, 30° C.; read-out: Kinase inhibition IC50 PLK-1. It counts as biochemical. Here is the method:
The compounds from the examples above were investigated for their ability to inhibit the enzymatic activity of various protein kinases. This was achieved by measurement of incorporation of radioactive phosphate from ATP into appropriate polypeptide substrates. Recombinant protein kinases and kinase complexes were produced or obtained commercially. Assays were performed using 96-well plates and appropriate assay buffers (typically 25 mM β-glycerophosphate, 20 mM MOPS, 5 MM EGTA, 1 mM DTT, 1 mM Na3VO3, pH 7.4), into which were added 2-4 μg of active enzyme with appropriate substrates. The reactions were initiated by addition of Mg/ATP mix (15 mM MgCl2+100 μM ATP with 30-50 kBq per well of [γ-^32P]-ATP) and mixtures incubated as required at 30° C. Reactions were stopped on ice, followed by filtration through p81 filterplates or GF/C filterplates (Whatman Polyfiltronics, Kent, UK). After washing 3 times with 75 mM aq orthophosphoric acid, plates were dried, scintillant added and incorporated radioactivity measured in a scintillation counter (TopCount, Packard Instruments, Pangbourne, Berks, UK). Compounds for kinase assay were made up as 10 mM stocks in DMSO and diluted into 10% DMSO in assay buffer.

In a further assay the target is CDK2/cyclin E (Homo sapiens, UniProt P24941). The experiment in a line: Kinase assay, radioactive phosphate incorporation, CDK2/cyclin E. The settings on record: 100 μM ATP, 30° C.; read-out: Kinase inhibition IC50 CDK2/cyclin E. It counts as biochemical. In outline:
(§1)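 Recombinant kinase complexes (2-4 μg) with polypeptide substrate were run in pH 7.4 β-glycerophosphate/MOPS buffer, started with 15 mM MgCl2 plus 100 μM ATP including [γ-^32P]-ATP, and incubated at 30° C. Substrate-incorporated ^32P was captured on filter plates, acid-washed and scintillation-counted. Compounds were diluted from DMSO stocks into 10% DMSO buffer.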

The subject of another assay is HT29. In words: 72-h MTT cytotoxicity assay, HT29. To be noted: Homo sapiens, HT-29, read-out: 72-h MTT IC50 HT29, HT29 cell line. It counts as cell-based. In a few lines: (§2)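 Cells were seeded by doubling time and left overnight, then given a 1/3 DMSO dilution series in triplicate for 72 h at 37° C. MTT (5 mg/mL stock) was added for 4 h in the dark. Formazan was dissolved in DMSO for the read-out.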

The subject of a further assay is Saos-2. In words: 72-h MTT cytotoxicity assay, Saos-2. In kind it is cell-based. To be noted: Homo sapiens, read-out: 72-h MTT IC50 Saos-2, Saos-2 cell line. In a few lines:
as §2
(Tetrazolium dyes change colour on reduction, which living cells bring about.)

Another assay relates to A549. In words: 72-h MTT cytotoxicity assay, A549. In kind it is cell-based. The settings on record: Homo sapiens, read-out: 72-h MTT IC50 A549, A549 cell line. In outline: as §2
For assay [1], the system named is transformed human cell lines (A549, HT29, Saos-2). In words: 72-h MTT cytotoxicity assay, average of cell lines. It counts as cell-based. To be noted: read-out: 72-h MTT IC50 Average, average of A549, HT29, Saos-2. In a few lines:
as §2

For another assay, the target named is CDK2/cyclin A (Homo sapiens, UniProt P24941). In words: Kinase assay, radioactive phosphate incorporation, CDK2/cyclin A. The settings on record: 100 μM ATP, 30° C.; read-out: Kinase inhibition IC50 CDK2/cyclin A. It counts as biochemical. In outline: as §1
The target of the next assay is GSK3β (Homo sapiens, UniProt P49841). In words: Kinase assay, radioactive phosphate incorporation, GSK3β. In kind it is biochemical. To be noted: 100 μM ATP, 30° C.; read-out: Kinase inhibition IC50 GSK3β. In outline: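 Inhibition is measured as reduced transfer of radioactive phosphate to a polypeptide substrate by 2-4 μg of recombinant enzyme. Mixtures with Mg/ATP (100 μM ATP, 15 mM MgCl2, [γ-32P]-ATP) in pH 7.4 MOPS-based buffer incubate at 30° C, are stopped on ice, filtered and counted.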

A further assay deals with CDK1/cyclin B (Homo sapiens, UniProt P06493). The experiment in a line: Kinase assay, radioactive phosphate incorporation, CDK1/cyclin B. In kind it is biochemical. To be noted: 100 μM ATP, 30° C.; read-out: Kinase inhibition IC50 CDK1/cyclin B. In a few lines:
as §1

In another assay the target is CDK4/cyclin D1 (Homo sapiens, UniProt P11802). In words: Kinase assay, radioactive phosphate incorporation, CDK4/cyclin D1. It counts as biochemical. The settings on record: 100 μM ATP, 30° C.; read-out: Kinase inhibition IC50 CDK4/cyclin D1. In a few lines:
as §1

The target of a further assay is CDK7/cyclin H (Homo sapiens, UniProt P50613). In words: Kinase assay, radioactive phosphate incorporation, CDK7/cyclin H. In kind it is biochemical. To be noted: 100 μM ATP, 30° C.; read-out: Kinase inhibition IC50 CDK7/cyclin H. In outline: as §1
In another assay the target is T1, Aurora-A (Homo sapiens, UniProt O14965).
T1 sequence (O14965 1-403): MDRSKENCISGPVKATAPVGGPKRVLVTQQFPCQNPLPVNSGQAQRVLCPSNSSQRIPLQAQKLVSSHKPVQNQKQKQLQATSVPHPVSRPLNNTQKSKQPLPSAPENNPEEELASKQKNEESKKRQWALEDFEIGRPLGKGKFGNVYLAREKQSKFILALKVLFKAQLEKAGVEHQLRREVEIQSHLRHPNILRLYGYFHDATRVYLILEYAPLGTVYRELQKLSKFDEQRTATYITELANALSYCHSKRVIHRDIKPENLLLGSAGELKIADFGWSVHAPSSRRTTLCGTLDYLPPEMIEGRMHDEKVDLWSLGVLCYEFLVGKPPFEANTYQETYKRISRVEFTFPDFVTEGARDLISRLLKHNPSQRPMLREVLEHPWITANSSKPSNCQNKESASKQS
The experiment in a line: Kinase assay, radioactive phosphate incorporation, Aurora-A. To be noted: 100 μM ATP, 30° C.; read-out: Kinase inhibition IC50 Aurora-A. It counts as biochemical. In a few lines:
as §1

The next assay addresses CDK9/cyclin T1 (Homo sapiens, UniProt P50750). In words: Kinase assay, radioactive phosphate incorporation, CDK9/cyclin T1. To be noted: 100 μM ATP, 30° C.; read-out: Kinase inhibition IC50 CDK9/cyclin T1. In kind it is biochemical. In outline:
as §1

Chain of CDK7/cyclin H (P50613 whole entry, species assumed): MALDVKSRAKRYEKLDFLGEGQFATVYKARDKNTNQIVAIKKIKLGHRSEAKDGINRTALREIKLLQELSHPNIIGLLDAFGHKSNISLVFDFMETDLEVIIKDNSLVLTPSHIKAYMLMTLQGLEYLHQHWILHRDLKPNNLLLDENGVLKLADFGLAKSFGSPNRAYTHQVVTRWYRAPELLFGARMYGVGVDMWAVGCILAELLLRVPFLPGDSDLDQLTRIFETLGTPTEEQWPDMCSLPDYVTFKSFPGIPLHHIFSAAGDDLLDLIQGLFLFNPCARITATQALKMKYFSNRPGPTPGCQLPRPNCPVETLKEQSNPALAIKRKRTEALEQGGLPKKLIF
Chain of CDK7/cyclin H (P51946 whole entry partner, species assumed): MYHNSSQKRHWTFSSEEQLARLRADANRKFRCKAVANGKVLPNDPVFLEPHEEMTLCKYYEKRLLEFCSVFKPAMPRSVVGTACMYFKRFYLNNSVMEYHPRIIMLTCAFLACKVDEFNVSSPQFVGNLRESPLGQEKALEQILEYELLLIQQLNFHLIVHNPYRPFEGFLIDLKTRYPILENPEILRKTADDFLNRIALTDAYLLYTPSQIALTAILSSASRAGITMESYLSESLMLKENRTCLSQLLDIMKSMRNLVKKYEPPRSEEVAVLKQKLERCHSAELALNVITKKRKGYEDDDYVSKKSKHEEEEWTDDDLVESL
Chain of CDK9/cyclin T1 (P50750 whole entry, species assumed): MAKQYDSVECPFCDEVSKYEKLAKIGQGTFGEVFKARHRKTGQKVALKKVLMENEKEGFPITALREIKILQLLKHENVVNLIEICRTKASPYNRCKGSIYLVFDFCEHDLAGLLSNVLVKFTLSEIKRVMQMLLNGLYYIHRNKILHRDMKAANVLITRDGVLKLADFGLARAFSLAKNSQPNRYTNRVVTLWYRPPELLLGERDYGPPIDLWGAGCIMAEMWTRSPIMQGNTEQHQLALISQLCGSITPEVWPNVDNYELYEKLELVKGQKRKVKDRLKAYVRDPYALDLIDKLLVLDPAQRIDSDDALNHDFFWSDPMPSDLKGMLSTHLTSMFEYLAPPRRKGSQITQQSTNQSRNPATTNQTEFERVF
Chain of CDK9/cyclin T1 (O60563 whole entry partner, species assumed): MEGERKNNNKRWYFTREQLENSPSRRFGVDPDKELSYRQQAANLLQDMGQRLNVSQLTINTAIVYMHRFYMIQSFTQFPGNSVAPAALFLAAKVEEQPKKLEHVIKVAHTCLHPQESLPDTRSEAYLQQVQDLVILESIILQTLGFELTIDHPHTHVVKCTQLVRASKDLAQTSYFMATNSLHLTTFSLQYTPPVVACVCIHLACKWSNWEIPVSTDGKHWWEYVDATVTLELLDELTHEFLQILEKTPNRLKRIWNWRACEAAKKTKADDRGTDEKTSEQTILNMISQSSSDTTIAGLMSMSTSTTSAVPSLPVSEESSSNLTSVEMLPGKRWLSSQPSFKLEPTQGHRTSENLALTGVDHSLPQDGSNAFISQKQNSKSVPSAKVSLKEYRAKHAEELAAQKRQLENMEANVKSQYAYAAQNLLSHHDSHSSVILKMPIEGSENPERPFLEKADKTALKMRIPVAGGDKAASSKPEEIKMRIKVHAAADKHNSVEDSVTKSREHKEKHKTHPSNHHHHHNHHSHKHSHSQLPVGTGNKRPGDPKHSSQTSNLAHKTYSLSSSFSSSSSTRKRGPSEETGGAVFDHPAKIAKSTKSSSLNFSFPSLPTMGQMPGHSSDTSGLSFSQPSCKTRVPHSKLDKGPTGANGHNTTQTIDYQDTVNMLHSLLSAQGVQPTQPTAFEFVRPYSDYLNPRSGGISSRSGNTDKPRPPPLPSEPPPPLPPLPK
Chain of PLK-1 (P53350 whole entry, species assumed): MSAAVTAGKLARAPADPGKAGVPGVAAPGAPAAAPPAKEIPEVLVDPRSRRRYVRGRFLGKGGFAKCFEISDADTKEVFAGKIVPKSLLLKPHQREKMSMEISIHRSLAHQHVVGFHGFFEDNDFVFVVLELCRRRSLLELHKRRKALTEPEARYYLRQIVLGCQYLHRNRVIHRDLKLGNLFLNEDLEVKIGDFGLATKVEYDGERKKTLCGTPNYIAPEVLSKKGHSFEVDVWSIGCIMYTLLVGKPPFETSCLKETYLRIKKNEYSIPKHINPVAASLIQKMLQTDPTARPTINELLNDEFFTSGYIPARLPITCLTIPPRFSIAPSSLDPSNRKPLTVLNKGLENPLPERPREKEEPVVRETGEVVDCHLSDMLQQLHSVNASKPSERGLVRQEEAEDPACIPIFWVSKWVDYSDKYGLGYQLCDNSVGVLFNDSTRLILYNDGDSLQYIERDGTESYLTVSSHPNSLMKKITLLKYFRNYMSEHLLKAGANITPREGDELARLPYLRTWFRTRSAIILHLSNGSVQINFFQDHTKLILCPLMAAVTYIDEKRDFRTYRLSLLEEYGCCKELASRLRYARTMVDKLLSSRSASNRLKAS
Chain of GSK3β (P49841 whole entry, species assumed): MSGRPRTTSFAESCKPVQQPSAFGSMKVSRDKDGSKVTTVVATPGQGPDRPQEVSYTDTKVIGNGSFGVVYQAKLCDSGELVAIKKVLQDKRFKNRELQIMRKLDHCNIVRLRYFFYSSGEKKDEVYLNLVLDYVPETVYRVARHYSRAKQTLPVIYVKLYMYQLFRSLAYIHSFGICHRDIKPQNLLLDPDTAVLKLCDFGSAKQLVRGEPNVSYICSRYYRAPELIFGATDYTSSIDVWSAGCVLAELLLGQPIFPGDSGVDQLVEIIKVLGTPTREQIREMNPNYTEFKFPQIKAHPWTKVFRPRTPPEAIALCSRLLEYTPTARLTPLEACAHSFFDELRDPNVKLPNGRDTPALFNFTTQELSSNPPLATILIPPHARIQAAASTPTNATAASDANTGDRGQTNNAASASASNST
Chain of CDK1/cyclin B (P06493 whole entry, species assumed): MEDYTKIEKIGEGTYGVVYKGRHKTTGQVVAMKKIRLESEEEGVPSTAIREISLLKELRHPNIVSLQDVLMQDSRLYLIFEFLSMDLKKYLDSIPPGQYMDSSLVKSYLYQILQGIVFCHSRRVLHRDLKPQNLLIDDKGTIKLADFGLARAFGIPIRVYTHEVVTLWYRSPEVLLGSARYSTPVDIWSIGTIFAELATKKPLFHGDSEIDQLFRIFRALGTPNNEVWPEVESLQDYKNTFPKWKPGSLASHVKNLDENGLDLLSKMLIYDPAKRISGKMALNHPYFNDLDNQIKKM
Chain of CDK1/cyclin B (P14635 whole entry partner, species assumed): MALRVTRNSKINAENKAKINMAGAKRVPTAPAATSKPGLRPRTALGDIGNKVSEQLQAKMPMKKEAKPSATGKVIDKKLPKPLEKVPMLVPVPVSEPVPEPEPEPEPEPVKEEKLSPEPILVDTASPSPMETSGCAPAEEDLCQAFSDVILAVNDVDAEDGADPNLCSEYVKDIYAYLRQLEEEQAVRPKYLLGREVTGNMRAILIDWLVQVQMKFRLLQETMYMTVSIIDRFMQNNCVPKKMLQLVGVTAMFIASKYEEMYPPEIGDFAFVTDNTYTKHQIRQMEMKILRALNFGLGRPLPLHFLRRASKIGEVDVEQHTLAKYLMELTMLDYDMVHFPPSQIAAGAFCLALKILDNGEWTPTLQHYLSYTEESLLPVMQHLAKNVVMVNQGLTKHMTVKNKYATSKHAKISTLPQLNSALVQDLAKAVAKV
Chain of CDK4/cyclin D1 (P11802 whole entry, species assumed): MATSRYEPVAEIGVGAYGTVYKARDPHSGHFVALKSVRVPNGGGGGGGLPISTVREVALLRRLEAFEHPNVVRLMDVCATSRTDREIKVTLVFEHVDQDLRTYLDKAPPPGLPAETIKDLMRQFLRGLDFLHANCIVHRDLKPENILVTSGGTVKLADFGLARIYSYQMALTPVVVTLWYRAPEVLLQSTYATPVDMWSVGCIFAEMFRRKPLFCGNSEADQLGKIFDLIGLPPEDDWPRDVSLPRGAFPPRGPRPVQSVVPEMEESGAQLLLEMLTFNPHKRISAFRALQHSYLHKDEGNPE
Chain of CDK4/cyclin D1 (P24385 whole entry partner, species assumed): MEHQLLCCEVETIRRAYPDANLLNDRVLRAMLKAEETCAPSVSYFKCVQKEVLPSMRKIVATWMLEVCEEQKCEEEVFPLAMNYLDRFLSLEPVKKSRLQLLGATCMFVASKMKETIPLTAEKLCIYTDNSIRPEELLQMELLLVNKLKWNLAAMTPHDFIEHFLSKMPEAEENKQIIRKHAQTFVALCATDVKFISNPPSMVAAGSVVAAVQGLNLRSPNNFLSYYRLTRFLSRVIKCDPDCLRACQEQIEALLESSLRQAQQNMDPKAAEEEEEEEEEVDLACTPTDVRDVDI

With `O=[N+]([O-])c1ccc(Nc2nccc(-c3cccc([N+](=O)[O-])c3)n2)cc1` [Compound 2, (4-Nitro-phenyl)-[4-(3-nitro-phenyl)-pyrimidin-2-yl]-amine], the IC50 at PLK-1 was 6.5 µM.
On to `CCN(C(C)=O)c1cccc(-c2ccnc(Nc3ccc(O)cc3)n2)c1` [Compound 10, N-Ethyl-N-{3-[2-(4-hydroxy-phenylamino)-pyrimidin-4-yl]-phenyl}-acetamide], for which the IC50 came out at 0.16 µM at CDK2/cyclin E; 9.7 µM with HT29; 5.4 µM in the assay with Saos-2; 4.8 µM on PLK-1; 8 µM in the assay with A549; 7.7 ± 2.2 µM in [1].
Consider `CC(=O)Nc1cccc(-c2ccnc(Nc3ccc(O)cc3)n2)c1` [Compound 11, N-{3-[2-(4-Hydroxy-phenylamino)-pyrimidin-4-yl]-phenyl}-acetamide], for which the IC50 came out at 0.25 µM at CDK2/cyclin E; 7.5 µM in the assay on HT29; 7.1 µM in the assay on Saos-2; 6.9 µM on PLK-1; 8.3 µM with A549; 7.6 ± 0.6 µM in [1].
Take `CC(=O)N(CC(C)C)c1cccc(-c2ccnc(Nc3ccc(O)cc3)n2)c1` [Compound 13, N-{3-[2-(4-Hydroxy-phenylamino)-pyrimidin-4-yl]-phenyl}-N-isobutyl-acetamide]: the IC50 on CDK2/cyclin E came out at 0.55 µM; at PLK-1, 14.5 µM.
In the same order, the values of `CNc1cccc(-c2ccnc(Nc3ccc(O)cc3)n2)c1` [Compound 14, 4-[4-(3-Methylamino-phenyl)-pyrimidin-2-ylamino]-phenol] are 0.045 µM and 13.7 µM.
The matching figures for `Nc1cccc(-c2ccnc(Nc3ccc(O)cc3)n2)c1` [Compound 15, 4-[4-(3-Amino-phenyl)-pyrimidin-2-ylamino]-phenol]: 0.36 µM and 7.8 µM.
Consider `Clc1ccc(Nc2nccc(-c3cccc(Cl)c3)n2)cc1` [Compound 16, (4-Chloro-phenyl)-[4-(3-chloro-phenyl)-pyrimidin-2-yl]-amine], for which the IC50 on PLK-1 stood at 8.7 µM.
Take `CN(C)Cc1cccc(-c2ccnc(Nc3ccc(N4CCOCC4)cc3)n2)c1` [Compound 82, [4-(3-Dimethylaminomethyl-phenyl)-pyrimidin-2-yl]-(4-morpholin-4-yl-phenyl)-amine]: the IC50 amounted to 1.5 µM on CDK2/cyclin A; 0.66 µM on CDK2/cyclin E; 2.3 µM at GSK3β; 4.5 µM with HT29; 6.6 µM in the assay with Saos-2; 1.1 µM at CDK1/cyclin B. Also, the IC50 at CDK4/cyclin D1 is 4.6 µM; at CDK7/cyclin H it was 2.9 µM; in the assay on A549 it was 6.2 µM; at Aurora-A, 0.4 µM; in assay [1] it was 5.8 ± 1.1 µM; on CDK9/cyclin T1, 0.33 µM.
With `NC(=O)C1CCCN(Cc2cccc(-c3ccnc(Nc4cccc([N+](=O)[O-])c4)n3)c2)C1` (stereo not shown) [Compound 99, 1-{3-[2-(3-Nitro-phenylamino)-pyrimidin-4-yl]-benzyl}-piperidine-3-carboxylic acid amide], the IC50 came to 1.7 µM at CDK2/cyclin A; 0.2 µM at CDK2/cyclin E; 0.04 µM on GSK3β; 2.6 µM with HT29; 4.1 µM in the assay on Saos-2; 1.2 µM at CDK1/cyclin B. For the same compound, the IC50 at CDK4/cyclin D1 is 3.8 µM; at CDK7/cyclin H, 0.18 µM; with A549 it was 3 µM; on Aurora-A, 1 µM; in assay [1], 3.2 ± 0.8 µM; on CDK9/cyclin T1 it was 0.001 µM.
As to `O=[N+]([O-])c1cccc(Nc2nccc(-c3cccc(CN4CCCC(CO)C4)c3)n2)c1` (stereo not shown) [Compound 105, (1-{3-[2-(3-Nitro-phenylamino)-pyrimidin-4-yl]-benzyl}-piperidin-3-yl)-methanol], the IC50 stood at 0.35 µM on CDK2/cyclin A; 0.07 µM at CDK2/cyclin E; 0.01 µM at GSK3β; 1.2 µM on CDK1/cyclin B; 1.9 µM on CDK4/cyclin D1; 0.08 µM on CDK7/cyclin H. The IC50 on Aurora-A was 2.6 µM; at CDK9/cyclin T1 it was 0.01 µM.
On to `CN(c1cccc(-c2ccnc(Nc3cccc([N+](=O)[O-])c3)n2)c1)S(C)(=O)=O` [Compound 129, N-Methyl-N-{3-[2-(3-nitro-phenylamino)-pyrimidin-4-yl]-phenyl}-methanesulfonamide], for which the IC50 on CDK2/cyclin A was 0.44 µM; on CDK2/cyclin E it was 0.07 µM; at GSK3β, 0.13 µM; at CDK1/cyclin B, 0.83 µM; at CDK4/cyclin D1, 2.6 µM; at CDK7/cyclin H it was 0.65 µM. Also, the IC50 on Aurora-A is 0.27 µM; on CDK9/cyclin T1, 0.02 µM.
Turning to `CN(c1cccc(-c2ccnc(Nc3cccc(O)c3)n2)c1)S(C)(=O)=O` [Compound 130, N-{3-[2-(3-Hydroxy-phenylamino)-pyrimidin-4-yl]-phenyl}-N-methyl-methanesulfonamide], the IC50 turned out to be 0.62 µM on CDK2/cyclin A; 0.22 µM on CDK2/cyclin E; 0.05 µM on GSK3β; 0.96 µM at CDK1/cyclin B; 1.3 µM on CDK4/cyclin D1; 1.3 µM on CDK7/cyclin H. Besides, the IC50 on Aurora-A was 0.12 µM; on CDK9/cyclin T1, 0.004 µM.
Regarding `CN(c1cccc(-c2ccnc(Nc3ccc(O)cc3)n2)c1)S(C)(=O)=O` [Compound 131, N-{3-[2-(4-Hydroxy-phenylamino)-pyrimidin-4-yl]-phenyl}-N-methyl-methanesulfonamide], the IC50 on CDK2/cyclin A came out at 0.45 µM; on CDK2/cyclin E, 0.18 µM; on GSK3β, 0.13 µM; on CDK1/cyclin B, 2.1 µM; at CDK4/cyclin D1, 2.5 µM; at CDK7/cyclin H, 1.4 µM. In addition, the IC50 at Aurora-A came out at 0.14 µM; at CDK9/cyclin T1, 0.01 µM.
